Laboratory results published in PubChem BioAssay AID328 (DTP/NCI, 2004).
“And” between values parts separate entries of the source, which are not always exact repeats. Equal values may be shown once. Inconclusive results and toxic doses are left out. How the source made its calls: active means survival T/C of 150% or more; inactive means T/C below 125% in these data. Non-standard residues stand in square brackets, D forms with d. Residues, ends and D or L forms follow the SMILES beside them. ξ: configuration not given here. ξF = NC(Cc1ccccc1)C(=O)O

System: BDF1 mice, P388 leukemia ip, median survival T/C
Experiment: NCI In Vivo Anticancer Drug Screen. Data for tumor model P388 Leukemia (intraperitoneal) in B6D2F1 (BDF1) mice
Conditions: endpoint: median survival time, higher = longer survival
Summary of the method: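 Vehicle-dosed animals serve as the reference; survival of compound-dosed, tumour-implanted mice is divided by it.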

[1] = dose: 50.0 mg/kg/injection, schedule: Q01DX009 (ip), vehicle: Klucel (hydroxypropylcellulose) (HPC)
[2] = dose: 100.0 mg/kg/injection, schedule: Q01DX009 (ip), vehicle: Klucel (hydroxypropylcellulose) (HPC)
[3] = dose: 25.0 mg/kg/injection, schedule: Q01DX009 (ip), vehicle: saline with Tween-80
[4] = dose: 50.0 mg/kg/injection, schedule: Q01DX009 (ip), vehicle: saline with Tween-80
[5] = dose: 100.0 mg/kg/injection, schedule: Q01DX009 (ip), vehicle: saline with Tween-80
[6] = dose: 100.0 mg/kg/injection, schedule: Q01DX009 (ip), vehicle: saline
[7] = dose: 100.0 mg/kg/injection, schedule: Q04DX003 (ip), vehicle: saline
[8] = dose: 200.0 mg/kg/injection, schedule: Q01DX009 (ip), vehicle: saline
[9] = dose: 200.0 mg/kg/injection, schedule: Q04DX003 (ip), vehicle: saline
[10] = dose: 400.0 mg/kg/injection, schedule: Q01DX009 (ip), vehicle: saline
[11] = dose: 400.0 mg/kg/injection, schedule: Q04DX003 (ip), vehicle: saline
[12] = dose: 50.0 mg/kg/injection, schedule: Q04DX003 (ip), vehicle: saline with Tween-80
[13] = dose: 100.0 mg/kg/injection, schedule: Q04DX003 (ip), vehicle: saline with Tween-80
[14] = dose: 50.0 mg/kg/injection, schedule: Q01DX009 (ip), vehicle: saline
[15] = dose: 50.0 mg/kg/injection, schedule: Q04DX003 (ip), vehicle: saline
[16] = dose: 25.0 mg/kg/injection, schedule: Q04DX003 (ip), vehicle: saline
[17] = dose: 200.0 mg/kg/injection, schedule: Q04DX003 (ip), vehicle: saline with Tween-80
[18] = dose: 400.0 mg/kg/injection, schedule: Q04DX003 (ip), vehicle: saline with Tween-80
[19] = dose: 200.0 mg/kg/injection, schedule: Q01DX009 (ip), vehicle: saline with Tween-80
[20] = dose: 400.0 mg/kg/injection, schedule: Q01DX009 (ip), vehicle: saline with Tween-80

Measured: T/C

O=S(=O)(NC(=S)Nc1ccc(Cl)cc1)c1ccccc1
inactive: [1] 113 % of control | [2] 118 % of control | dose: 150.0 mg/kg/injection, schedule: Q04DX003 (ip), vehicle: Klucel (hydroxypropylcellulose) (HPC) 113 % of control | dose: 225.0 mg/kg/injection, schedule: Q04DX003 (ip), vehicle: Klucel (hydroxypropylcellulose) (HPC) 117 % of control | dose: 335.0 mg/kg/injection, schedule: Q04DX003 (ip), vehicle: Klucel (hydroxypropylcellulose) (HPC) 113 % of control

CCN(CC)c1c(-c2ccccc2)nnc2c3ccccc3nn12
inactive: [3] 100 % of control | [4] 88 % of control | [5] 100 % of control

c1ccc(-c2c[n+]3cc4ccccc4cc3cn2)cc1
inactive: [6] 95 % of control | [7] 100 % of control | [8] 91 % of control | [9] 113 % of control | [10] 91 % of control | [11] 95 % of control

Cc1nc2c(NC(=O)CCl)nn(C)c2nc1C
inactive: dose: 25.0 mg/kg/injection, schedule: Q04DX003 (ip), vehicle: saline with Tween-80 105 % of control | [12] 110 % of control | [13] 95 % of control

CCOP(=S)(OCC)OP(=S)(OCC)OCC
inactive: dose: 1.0 mg/kg/injection, schedule: Q04DX003 (ip), vehicle: other 111 % of control | dose: 2.0 mg/kg/injection, schedule: Q04DX003 (ip), vehicle: other 106 % of control | dose: 4.0 mg/kg/injection, schedule: Q04DX003 (ip), vehicle: other 106 % of control

CCOC(=O)C1CC[N+](=c2cc(-c3ccc(Cl)cc3)ss2)CC1 (stereo not given)
inactive: [14] 101 % of control | [15] 106 % of control | [6] 99 % of control | [7] 116 % of control | [9] 116 % of control | [11] 116 % of control

CC(C)=CCC/C(C)=C/Cn1cnc2c(ncn2C2OC(CO)C(O)C2O)c1=O (stereo not given)
inactive: dose: 12.5 mg/kg/injection, schedule: Q04DX003 (ip), vehicle: saline 110 % of control | [16] 105 % of control | [15] 114 % of control

CC(OC1C(N)C(O)OC(CO)C1O)C(=O)O (stereo not given)
inactive: dose: 50.0 mg/kg/injection, schedule: Q01DX005 (ip), vehicle: saline 103 % of control | dose: 100.0 mg/kg/injection, schedule: Q01DX005 (ip), vehicle: saline 109 % of control | dose: 200.0 mg/kg/injection, schedule: Q01DX005 (ip), vehicle: saline 107 % of control

CC1(C)O[Se](=O)OC1(C)C
inactive: dose: 6.25 mg/kg/injection, schedule: Q04DX003 (ip), vehicle: saline 100 % of control

NC(Cc1ccccc1)C(=O)NCC(=O)O (stereo not given) (H-[ξF]-Gly-OH)
inactive: [7] 100 % of control | [9] 100 % of control | [11] 100 % of control

CC(C)C1C(C)N1C(C)C (stereo not given)
inactive: dose: 25.0 mg/kg/injection, schedule: Q01DX009 (ip), vehicle: Klucel (hydroxypropylcellulose) (HPC) 100 % of control | dose: 25.0 mg/kg/injection, schedule: Q04DX003 (ip), vehicle: Klucel (hydroxypropylcellulose) (HPC) 100 % of control | [1] 100 % of control | dose: 50.0 mg/kg/injection, schedule: Q04DX003 (ip), vehicle: Klucel (hydroxypropylcellulose) (HPC) 100 % of control | [2] 95 % of control | dose: 100.0 mg/kg/injection, schedule: Q04DX003 (ip), vehicle: Klucel (hydroxypropylcellulose) (HPC) 104 % of control

CC(C)CCSc1nc(N)nc2nc[nH]c12
inactive: dose: 100.0 mg/kg/injection, schedule: Q01DX009 (ip), vehicle: other 86 % of control | [13] 100 % of control | dose: 200.0 mg/kg/injection, schedule: Q01DX009 (ip), vehicle: other 90 % of control | [17] 109 % of control | dose: 400.0 mg/kg/injection, schedule: Q01DX009 (ip), vehicle: other 109 % of control | [18] 109 % of control

CCCCCCCCCCCCCC/[N+]([O-])=C/c1ccc([N+](=O)[O-])o1
inactive: dose: 6.25 mg/kg/injection, schedule: Q04DX002 (ip), vehicle: saline with Tween-80 91 % of control | dose: 12.5 mg/kg/injection, schedule: Q04DX002 (ip), vehicle: saline with Tween-80 100 % of control | dose: 25.0 mg/kg/injection, schedule: Q04DX002 (ip), vehicle: saline with Tween-80 87 % of control | dose: 200.0 mg/kg/injection, schedule: Q04DX002 (ip), vehicle: saline with Tween-80 88 % of control

CN(C)Cc1cc(C(C)(C)CC(C)(C)C)ccc1O
inactive: dose: 100.0 mg/kg/injection, schedule: Q04DX002 (ip), vehicle: Klucel (hydroxypropylcellulose) (HPC) 114 % of control | dose: 200.0 mg/kg/injection, schedule: Q04DX002 (ip), vehicle: Klucel (hydroxypropylcellulose) (HPC) 99 % of control

CCN(CC)CC(Cl)CN(CC)CC
inactive: [12] 110 % of control | [13] 105 % of control | [17] 100 % of control

CC1=NC2=NC(CCCC(=O)Nc3ccc(Cl)cc3)=NC3=CC=CC(=N1)N32
inactive: [3] 104 % of control | [4] 95 % of control | [5] 99 % of control

CCOC(=O)/C=C(\C)OCC
inactive: dose: 25.0 mg/kg/injection, schedule: Q01DX009 (ip), vehicle: saline 104 % of control | [16] 92 % of control and 111 % of control | [14] 101 % of control | [15] 94 % of control and 114 % of control | [6] 90 % of control | [7] 100 % of control | [8] 109 % of control | [9] 98 % of control and 106 % of control | [10] 95 % of control | [11] 97 % of control and 104 % of control

O=C(NC(=O)c1c(F)cccc1F)Nc1ccc(Cl)c2ccccc12
inactive: [3] 91 % of control | [4] 100 % of control | [5] 90 % of control

CN(C)c1ccc(C=Nc2ccc(/C=C\c3ccnc4ccccc34)cc2)cc1
inactive: [4] 107 % of control | [5] 117 % of control | [19] 100 % of control

NC(=O)C(O)C(Br)(Br)Br (stereo not given)
inactive: [6] 116 % of control | [7] 95 % of control | [8] 108 % of control | [9] 104 % of control | [11] 100 % of control

OCC[P+](c1ccccc1)(c1ccccc1)c1ccccc1
inactive: dose: 25.0 mg/kg/injection, schedule: Q01DX001 (ip), vehicle: saline 108 % of control | dose: 50.0 mg/kg/injection, schedule: Q01DX001 (ip), vehicle: saline 98 % of control

Cc1ccc2c(c1)C(c1ccccc1)(c1ccccc1)OC2=O
inactive: [5] 100 % of control | [19] 90 % of control | [20] 100 % of control

Cc1ccc(NC(=S)NCCc2ccccn2)cc1C
inactive: [4] 101 % of control and 124 % of control | [5] 100 % of control and 102 % of control | [19] 104 % of control and 106 % of control | [20] 100 % of control

CCOC(=O)CCC#N
inactive: [14] 100 % of control | [6] 116 % of control | [10] 99 % of control

CC(O)(/C=C\c1ccccc1)c1ccccc1 (stereo not given)
inactive: [5] 105 % of control | [13] 95 % of control | [19] 107 % of control | [17] 104 % of control | [20] 105 % of control | [18] 104 % of control

Nc1nc(=S)c2ncn(C3OC(CO)CC3O)c2[nH]1 (stereo not given)
inactive: [6] 95 % of control
